The target of test [1] is T1, human cannabinoid CB1 receptors (Homo sapiens, UniProt P21554).
T1 construct: expressed in transfected cells
Kind of test: In vitro affinity for cannabinoid-CB1 receptors ([3H]CP-55,940 radioligand binding, CHO cell membranes). The procedure:
In vitro affinity for cannabinoid-CB1 receptors was determined using membrane preparations of CHO cells in which human cannabinoid CB1 receptors were stably transfected in conjunction with [^3H]CP-55,940 as radioligand. After incubation of a freshly prepared cell membrane preparation with the [^3H]-ligand, with or without addition of compounds of the invention, separation of bound and free ligand was performed by filtration over glassfiber filters. Radioactivity on the filter was measured by liquid scintillation counting.

Test [2] concerns the target T2, human cannabinoid CB2 receptors (Homo sapiens, UniProt P34972).
T2 construct: expressed in transfected cells
The test can be described thus: In vitro affinity for cannabinoid-CB2 receptors ([3H]CP-55,940 radioligand binding, CHO cell membranes). The procedure: In vitro affinity for cannabinoid-CB2 receptors: was determined using membrane preparations of CHO cells in which human cannabinoid CB2 receptors were stably transfected in conjunction with [^3H]CP-55,940 as radioligand. After incubation of a freshly prepared cell membrane preparation with the [^3H]-ligand, with or without addition of compounds of the invention, separation of bound and free ligand was performed by filtration over glassfiber filters. Radioactivity on the filter was measured by liquid scintillation counting.

Test [3] addresses T3, human CB1 receptors (Homo sapiens, UniProt P21554).
T3 construct: expressed in transfected cells; host or cells: CHO cells
The test can be described thus: In vitro cannabinoid-CB1 receptor (ant)agonism, [3H]-arachidonic acid release in CHO cells. The test is classed as cell-based. The procedure:
In vitro cannabinoid-CB1 receptor (ant)agonism was assessed with human CB1 receptors cloned in CHO cells. CHO cells were grown in a DMEM culture medium, supplemented with 10% heat-inactivated fetal calf serum. Medium was aspirated and replaced by DMEM, without fetal calf serum, but containing [^3H]-arachidonic acid and incubated overnight in a cell culture stove (5% CO2/95% air; 37° C.; water-saturated atmosphere). During this period [^3H]-arachidonic acid was incorporated in membrane phospholipids. On the test day, medium was aspirated and cells were washed three times using 0.5 ml DMEM, containing 0.2% BSA. CB1 agonist stimulation lead to activation of PLA2 followed by release of [^3H]-arachidonic acid into the medium. This CB1 agonist-induced release was concentration-dependently antagonized by CB1 receptor antagonists, such as rimonabant.

The mark [4] stands for this setting: membranes of CHO cells stably transfected with human CB1, radioligand [3H]CP-55,940, mean of at least three independent experiments, read-out: receptor binding Human CB1 [^3H]-CP-55,940 pKi (converted).
Setting [5] is: membranes of CHO cells stably transfected with human CB2, radioligand [3H]CP-55,940, mean of at least three independent experiments, read-out: receptor binding Human CB2 [^3H]-CP-55,940 pKi (converted).
[6] abbreviates: human CB1 receptors cloned in CHO cells, [3H]-arachidonic acid release.

Experimental findings from patent US8410135B2, “4,5 dihydro-(1H)-pyrazole derivatives as cannabinoid CB1 receptor modulators” (Solvay Pharmaceuticals B.V., priority 2007, dated 2013) are described below.

Read-outs that look alike come from different tables or passages of the source.

T2 sequence (P34972 whole entry): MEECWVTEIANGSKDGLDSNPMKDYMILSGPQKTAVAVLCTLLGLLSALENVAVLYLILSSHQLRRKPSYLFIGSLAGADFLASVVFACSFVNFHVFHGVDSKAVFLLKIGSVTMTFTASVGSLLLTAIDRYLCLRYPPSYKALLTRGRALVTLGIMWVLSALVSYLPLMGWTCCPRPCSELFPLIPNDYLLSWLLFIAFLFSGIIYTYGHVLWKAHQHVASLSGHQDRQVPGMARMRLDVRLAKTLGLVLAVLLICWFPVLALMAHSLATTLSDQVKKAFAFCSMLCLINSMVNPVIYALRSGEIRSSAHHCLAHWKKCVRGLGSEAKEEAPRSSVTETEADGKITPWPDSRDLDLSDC
T3 sequence (P21554 whole entry): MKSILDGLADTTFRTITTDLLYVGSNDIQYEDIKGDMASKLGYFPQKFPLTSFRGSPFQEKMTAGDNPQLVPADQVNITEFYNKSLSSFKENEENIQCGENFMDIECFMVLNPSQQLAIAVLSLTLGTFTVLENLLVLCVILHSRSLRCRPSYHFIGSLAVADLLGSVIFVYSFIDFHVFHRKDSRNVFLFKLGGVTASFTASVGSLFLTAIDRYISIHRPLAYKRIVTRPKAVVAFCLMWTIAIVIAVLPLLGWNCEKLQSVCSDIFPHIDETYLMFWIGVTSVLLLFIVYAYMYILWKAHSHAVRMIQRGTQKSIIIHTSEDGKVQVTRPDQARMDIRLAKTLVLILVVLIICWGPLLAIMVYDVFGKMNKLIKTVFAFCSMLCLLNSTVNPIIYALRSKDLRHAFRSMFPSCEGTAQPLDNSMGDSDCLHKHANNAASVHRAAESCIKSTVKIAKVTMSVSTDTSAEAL
T1 sequence (P21554 whole entry): as above

`CCCCC1=NN(C(=O)CC(C)CC(C)(C)C)C(C)(C)C1c1ccccc1` (mixture of isomers) [Compound 39, [3-(n-butyl)-5,5-dimethyl-4-phenyl-4,5-dihydro-(1H)-pyrazol-1-yl]-3,5,5-trimethylhexan-1-one]: the Ki in test [1] (setting [4]) is 100 nM; in test [2] (setting [5]), 12.6 nM. For the same compound, the EC50 in test [3] (human CB1 receptors cloned in CHO cells, [3H]-arachidonic acid release, read-out: functional activity h-CB1 agonistic activity [^3H]-Arachidonic acid pEC50 (converted)) is 63.1 nM.

With `CCCCC1=NN(C(=O)N[C@@H]2C[C@H]3CC[C@H]2C3)C(C)(C)C1c1ccccc1` (relative stereo) [Compound 19, N-(rel-exo-bicyclo[2.2.1]hept-2-yl)-3-(n-butyl)-5,5-dimethyl-4-phenyl-4,5-dihydro-(1H)-pyrazole-1-carboxamide], the Ki in test [1] is 25.1 nM; in test [2], 7.94 nM. In addition, the EC50 in test [3] was 100 nM.

In the case of `CCCCC1=NN(C(=O)NC(C)(C)c2ccccc2)C(C)(C)C1c1ccccc1` (stereo not drawn) [Compound 1, N-(1-methyl-1-phenyl-ethyl)-3-(n-butyl)-5,5-dimethyl-4-phenyl-4,5-dihydro-(1H)-pyrazole-1-carboxamide], the Ki was 7.94 nM in test [1] (setting [4]) and 3.98 nM in test [2] (setting [5]). Further, the “functional activity h-CB1 agonistic activity [^3H]-Arachidonic acid pEC50” value in test [3] (setting [6]) worked out at 8.1.

With `CCCCC1=NN(C(=O)N[C@H]2C[C@H]3CC[C@]2(C)C3(C)C)C(C)(C)C1c1ccccc1` (stereo partly drawn) [Compound 2, N-[Endo-(1R,2S,4R)-1,7,7-trimethylbicyclo[2.2.1]hept-2-yl]-3-(n-butyl)-5,5-dimethyl-4-phenyl-4,5-dihydro-(1H)-pyrazole-1-carboxamide], the Ki in test [1] is 12.6 nM; in test [2], 3.98 nM. For the same compound, the “functional activity h-CB1 agonistic activity [^3H]-Arachidonic acid pEC50” value in test [3] (setting [6]) came to 7.4.
